# Experimental data as given in patent US20140023611A1 (priority 2010, published 2014).
# Biological target: T1, rat NaP2b (SLC34A2) (Rattus norvegicus, UniProt Q9JJ09)
# T1 construct: host or cells: HEK293
# T1 sequence (Q9JJ09 1-695): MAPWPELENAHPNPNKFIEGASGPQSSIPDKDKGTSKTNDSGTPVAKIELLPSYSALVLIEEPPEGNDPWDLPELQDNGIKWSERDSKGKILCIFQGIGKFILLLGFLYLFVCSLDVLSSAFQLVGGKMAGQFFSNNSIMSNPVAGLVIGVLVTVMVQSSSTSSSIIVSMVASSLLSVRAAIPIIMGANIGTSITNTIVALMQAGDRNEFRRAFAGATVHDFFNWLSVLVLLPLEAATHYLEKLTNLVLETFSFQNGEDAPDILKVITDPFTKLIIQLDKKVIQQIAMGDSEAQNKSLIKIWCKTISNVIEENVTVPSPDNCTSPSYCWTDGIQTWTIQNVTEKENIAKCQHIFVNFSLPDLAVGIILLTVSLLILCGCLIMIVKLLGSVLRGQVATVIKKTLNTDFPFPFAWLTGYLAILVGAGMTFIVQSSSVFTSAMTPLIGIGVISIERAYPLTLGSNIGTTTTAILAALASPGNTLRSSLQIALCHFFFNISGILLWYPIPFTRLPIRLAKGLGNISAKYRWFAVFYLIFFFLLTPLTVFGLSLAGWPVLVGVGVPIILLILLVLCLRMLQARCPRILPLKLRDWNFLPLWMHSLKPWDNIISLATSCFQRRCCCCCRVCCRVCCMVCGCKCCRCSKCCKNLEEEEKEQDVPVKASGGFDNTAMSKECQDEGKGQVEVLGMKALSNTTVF
# Experiment: Inhibition of NaP2b-mediated Pi (33P) uptake in transfected HEK293 cells, rat NaP2b
# Type: cell-based
# Conditions: 33P Pi uptake, 0.1 mM phosphate, value given as pIC50 range
# How it was run: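 The cells transiently expressed NaP2b after Lipofectamine transfection. Each compound was run in duplicate over twelve concentrations, 0.1 nM–30 uM.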
row,Structure (SMILES),IC50
1,"O=C(NCCOCCO)c1cccc(C(=O)Nc2ccc(N3CCCCC3)cc2-c2cc(NCc3cccc(C(F)(F)F)c3)ncn2)c1 [Example 64, N1-(2-(2-Hydroxyethoxy)ethyl)-N3-(4-(piperidin-1-yl)-2-(6-((3-(trifluoromethyl)benzyl)amino)pyrimidin-4-yl)phenyl)isophthalamide]",10 to 31.6 µM
2,"O=C(NCCOCCO)c1cccc(C(=O)Nc2ccc(Cl)cc2-c2cc(NCc3cccc(C(F)(F)F)c3)ncn2)c1 [Example 65, N1-(4-Chloro-2-(6-((3-(trifluoromethyl)benzyl)amino)pyrimidin-4-yl)phenyl)-N3-(2-(2-hydroxyethoxy)ethyl)isophthalamide]",10 to 31.6 µM
3,"O=C(O)CCSCc1cccc(C(=O)Nc2ccc(Cl)cc2-c2cc(NCc3cccc(C(F)(F)F)c3)ncn2)c1 [Example 66, 3-((3-((4-Chloro-2-(6-((3-(trifluoromethyl)benzyl)amino)pyrimidin-4-yl)phenyl)carbamoyl)benzyl)thio)propanoic acid]",10 to 31.6 µM
4,"CN(C)CCC#Cc1cccc(C(=O)Nc2ccc(Cl)cc2-c2cc(NCc3cccc(C(F)(F)F)c3)ncn2)c1 [Example 67, N-(4-Chloro-2-(6-(3-(trifluoromethyl)benzylamino)pyrimidin-4-yl)phenyl)-3-(4-(dimethylamino)but-1-ynyl)benzamide 2,2,2-trifluoroacetate]",10 to 31.6 µM
5,"CCN(CC)CCN(C)Cc1cccc(C(=O)Nc2ccc(Cl)cc2-c2cc(NCc3cccc(C(F)(F)F)c3)ncn2)c1 [Example 68, N-(4-Chloro-2-(6-((3-(trifluoromethyl)benzyl)amino)pyrimidin-4-yl)phenyl)-3-(((2-(diethylamino)ethyl)(methyl)amino)methyl)benzamide]",10 to 31.6 µM
6,"O=C(O)CCSCc1cccc(C(=O)Nc2ccc(N3CCCCC3)cc2-c2cc(NCc3cccc(C(F)(F)F)c3)ccn2)c1 [Example 69, 3-((3-((4-(Piperidin-1-yl)-2-(4-((3-(trifluoromethyl)benzyl)amino)pyridin-2-yl)phenyl)carbamoyl)benzyl)thio)propanoic acid]",10 to 31.6 µM
7,"O=C(O)CCSCc1cccc(C(=O)Nc2ccc(N3CCCCC3)cc2-c2cc(NCCc3cccc(C(F)(F)F)c3)ccn2)c1 [Example 70, 3-((3-((4-(Piperidin-1-yl)-2-(4-((3-(trifluoromethyl)phenethyl)amino)pyridin-2-yl)phenyl)carbamoyl)benzyl)thio)propanoic acid]",10 to 31.6 µM
8,"Cc1ccc(Nc2ccnc(-c3cc(N4CCCCC4)ccc3NC(=O)c3cccc(CSCCC(=O)O)c3)c2)cc1C [Example 71, 3-((3-((2-(4-((3,4-Dimethylphenyl)amino)pyridin-2-yl)-4-(piperidin-1-yl)phenyl)carbamoyl)benzyl)thio)propanoic acid]",10 to 31.6 µM
9,"O=C(O)CCSCc1cccc(C(=O)Nc2ccc(N3CCCCC3)cc2-c2cc(Nc3cccc(C(F)(F)F)c3)ccn2)c1 [Example 72, 3-((3-((4-(Piperidin-1-yl)-2-(4-((3-(trifluoromethyl)phenyl)amino)pyridin-2-yl)phenyl)carbamoyl)benzyl)thio)propanoic acid]",10 to 31.6 µM
10,"O=C(O)CCSCc1cccc(C(=O)Nc2ccc(N3CCCCC3)cc2-c2cc(NC(=O)c3cccc(C(F)(F)F)c3)ccn2)c1 [Example 73, 3-((3-((4-(Piperidin-1-yl)-2-(4-(3-(trifluoromethyl)benzamido)pyridin-2-yl)phenyl)carbamoyl)benzyl)thio)propanoic acid]",10 to 31.6 µM
11,"Cc1ccc(C(=O)Nc2ccnc(-c3cc(N4CCCCC4)ccc3NC(=O)c3cccc(CSCCC(=O)O)c3)c2)cc1C [Example 74, 3-((3-((2-(4-(3,4-Dimethylbenzamido)pyridin-2-yl)-4-(piperidin-1-yl)phenyl)carbamoyl)benzyl)thio)propanoic acid]",10 to 31.6 µM
12,"O=C(NCc1cccc(C(F)(F)F)c1)c1ccnc(-c2cc(N3CCCCC3)ccc2NC(=O)c2cccc(Cn3cc(CCO)nn3)c2)c1 [Example 75, 2-(2-(3-((4-(2-Hydroxyethyl)-1H-1,2,3-triazol-1-yl)methyl)benzamido)-5-(piperidin-1-yl)phenyl)-N-(3-(trifluoromethyl)benzyl)isonicotinamide]",10 to 31.6 µM
